Measured values as given in patent US11046647B2, “Activators of the unfolded protein response” (The Board of Trustees of the University of Illinois, priority 2018, dated 2021).

Columns and labels:
[1] = tested on: T47D, TYS and TDG cells; experiment: MTS proliferation assay (4 days), T47D, TYS and TDG; type: cell-based, human
Description: FIG. 30 compares the ability of BHPI and test compounds to inhibit proliferation of T47D, TYS and TDG cells. T47D cells were in medium containing 10 FBS (which contains estrogen), TYS-4 and TDG-1 cells were in medium containing 10% cd-FBS (estrogen depleted). Cells are plated at 2,000 cells/well in 96 well plates. After 24 hours in medium containing FBS or charcoal-dextran treated FBS (depleted of endogenous estrogens), the indicated concentration of each compound (in DMSO at 1/1000th of the volume of medium) was added. After 2 days the medium was changed, and the compounds were added again. After 2 additional days (4 days total) MTS assays are used to evaluate cell proliferation. (n=6 ±S.E.M.).

[2] = tested on: TDG cells; experiment: Trypan Blue exclusion cell death assay, TDG / TDG-Luc; type: cell-based, human; settings: 24 hours
Source text: (§1) TRYPAN BLUE: For decades, viable cells have been measured by their ability to exclude the dye Trypan Blue. […] Dead cells, which have lost membrane integrity, take up the dye and are blue. Thus, the percentage of dead cells is the percentage of cells that are Trypan Blue positive out of the total cell population. Quantitative assessment of Trypan Blue uptake uses a cell counter from Fisher. Since the assay is instrument based, there is no observer bias in determining the percentage of Trypan Blue positive cells.
(§2) TRYPAN BLUE ASSAYS: Assays are performed on cells in 6 well plates: 300,000 cells are plated in each well of a 6-well plate in 3 ml of medium. After 24 hours, the DMSO vehicle or the indicated compound is added (in 1000th of the vol.) The cells incubated for an additional 24 hours, and then harvested in 0.25 ml of trypsin, followed after harvest by 0.75 ml of medium. The cells are spun down and resuspended in 100-200 μl of medium left that is over the cell pellet (resuspend cells by pipetting up and down a few times). Add 10 μl to 10 μl of trypan blue. Then 10 μl is inserted into the counting slide. After inserting the slide into the Fisher TC20 counting is automatic (these many cells are needed because an accurate ratio of Trypan Blue positive to Trypan Blue negative cells requires about 200 cells in the field the instrument counts).
The Trypan Blue cell death assay was used to evaluate the ability of the active enantiomer of C-105 [(−)-105] to kill ERα positive TDG-Luc cells. For all studies, 300,000 TDG-Luc cells/well in 10% FBS were plated in a 6-well plate in triplicate. 24 hours after plating, the indicated concentrations the active enantiomer of (−)-105, or BHPI (top) ICI, or OHT (Lower left) or (+)-105 (lower right) were added. After 24 hours, the cells were harvested, and the % dead cells was determined by automated Trypan Blue exclusion using the Countess II automated hemocytometer. Percentage of viable cells was calculated by doing 100-(Cell Death %). (n=3±SEM).
TDG cells were incubated for 24 hours with 75 nM of BHPI or 75 nM of each of the indicated test compounds: 4, 6 and (±)-105 (enantiomers not separated). Cell death was determined using the instrument-based Trypan Blue exclusion assay. Structures are in the Synthesis section. […] (n=3±SEM).

[3] = tested on: TYS cells; experiment: Trypan Blue exclusion cell death assay, TYS / TYS-Luc; type: cell-based, human; settings: 24 hours
Source text: as §1, §2
The Trypan Blue cell death assay was used to evaluate the ability of the active enantiomer of 105 (−) [(−)-105] to kill ERα positive MCF-7 and TYS-Luc, human breast cancer cells. 300,000 T47D cells/well in 10% FBS were plated in a 6-well plate in triplicate. 24 hours after plating, the indicated concentrations of BHPI, or the active enantiomer 105 (−) of C-105 [(−)-105] was added. After 24 hours, the cells were harvested, and the % dead cells was determined by automated Trypan Blue exclusion using the Countess II automated hemocytometer. Percentage of viable cells was calculated by doing 100-(Cell Death %). (n=3±SEM).
TYS cells were incubated for 24 hours with 35 nM of BHPI or 35 nM of each of the indicated test compounds: 2, 4, and 105. Cell death was determined using the instrument-based Trypan Blue exclusion assay.
TYS cells were incubated for 24 hours with 50 nM of BHPI or 50 nM of each of the indicated test compounds: 4, 6 and 105. Cell death was determined using the instrument-based Trypan Blue exclusion assay. (n=3±SEM).

[4] = tested on: T47D cells; experiment: Trypan Blue exclusion cell death assay, T47D / T47D-Luc; type: cell-based, human; settings: 75 nM, 24 hours
Source text: as §1
as §2, with “After inserting the slide into the Fisher TC20 counting is automatic (these many cells are needed because an accurate ratio of Trypan Blue positive to Trypan Blue negative cells requires about 200 cells in the field the instrument counts).” left out
The Trypan Blue cell death assay was used to compare the ability of the active (−) enantiomer of C-105 and BHPI to kill estrogen receptor α (ERα) positive T47D, human breast cancer cells expressing luciferase (T47D-Luc cells). […] After 24 hours, the cells were harvested, and the % dead cells was determined by automated Trypan Blue exclusion using the Countess II automated hemocytometer. Percentage of viable cells was calculated by doing 100-(Cell Death %). […]
T47D cells were incubated for 24 hours with 75 nM of BHPI or 75 nM of each of the indicated test compounds: 4 and 6. Cell death was determined using the instrument-based Trypan Blue exclusion assay. […]
T47D cells were treated for 24 hours with 100 nM BHPI, or with 100 nM of each of the test compounds: 6, 8, and 105. […] Cell death was determined using the instrument-based Trypan Blue exclusion assay. […]

[5] = tested on: ERα Negative MCF-10A cells; experiment: Trypan Blue exclusion cell death assay, MCF-10A; type: cell-based; settings: 75 nM, 24 hours
Source text: as §1, §2
In FIG. 28, neither the test compounds nor BHPI kill non-tumorigenic ERα Negative MCF-10A breast cells. ERα Negative MCF-10A cells were maintained for 24 hours in DMSO vehicle or 75 nM of BHPI or 75 nM of each of the indicated test compounds: 4, 6 and 105. Cell death was determined using the instrument-based Trypan Blue exclusion assay. (n=3±SEM).

[6] = tested on: T47D cells; settings: 24 hours; up to 1,000 nM; FACS annexin V-FITC/PI
Description: One such change is loss of plasma membrane polarity. This is monitored using Annexin V. Dying cells also take up the dye propidium iodide. Propidium iodide (PI) fluoresces when it is intercalated into DNA. These assays monitor cells at specific stages of cell death.
FLOW CYTOMETRY (FITC) ASSAYS: Cells were seeded in 12-well plates, 75,000 cells/well, and allowed to adhere overnight. The next day, the indicated concentrations of raptinal (positive control), (−)-105, (±)-105, and (+)-105 were added and allowed to incubate at 37° C. for 24 hours (Final Volume: 1 ml, 0.1% DMSO). After incubation, cells were harvested and resuspended in 350 μl of cold Annexin binding buffer (10 mM HEPES, 140 mM NaCl, 2.5 mM CaCl2, pH 7.4) premixed with Annexin V-FITC and PI dyes. Samples were analyzed on a BD Biosciences LSRII flow cytometer, and data analysis was performed using FSC Express Version 5-6. Cell death was assessed relative to a DMSO treated control.
T47D, human breast cancer cells were plated at 75,000 cells/well. The next day, DMSO vehicle, 10 μM raptinal (control for 100% cell death), or 0, 50, 100 500 and 1,000 nM of BHPI or (±)-105, or 1,000 nM ICI/fulvestrant or 1,000 nM OHT was added. After 24 hours viable cells were determined by FACS using annexin V-FITC and propidium iodide dyes. (n=3 independent experiments ±SEM).
75,000 ERα positive T47D, human breast cancer cells, were plated/well. The next day, DMSO vehicle, 10 μM raptinal (control for 100% cell death), or 100 500 and 1,000 nM of (+)-105, or (−)-105 was added. After 24 hours viable cells were determined by FACS using annexin V-FITC and propidium iodide dyes. (n=1).

[7] = tested on: MCF-7 tumors; experiment: MCF-7 orthotopic tumor model; type: in vivo, mouse; settings: large established MCF-7 tumors; SERK-F6 10 or 40 mg/kg p.o. daily; fulv. 5 mg/mouse s.c. weekly
Description: FIG. 39. SERK-F6 eradicates wild-type ERα tumors via hyperactivation of aUPR. a, MCF-7 orthotopic tumors were established in Nu/J ovariectomized mice supplemented with a 60 day E2 pellet (0.36 mg) and grown to ˜400 mm^3 (28 days to establish), randomized, then treated with vehicle daily (n=3), vehicle weekly (n=3), fulv. weekly (5 mg/mouse, s.c., n=6), SERK-F6 daily (10 or 40 mg/kg p.o.). Vehicle arms were averaged. p values: *: p≤0.05, **: p≤0.01, ***: p≤0.001, ****: p≤0.0001. Tumor images were taken at the end of the study (day 21) and are representative of all tumors (n=6). b-e, MCF-7 cells were orthotopically bi-laterally grafted and tumors were grown until total tumor burden was ˜400 mm^3 prior to daily treatment with vehicle or SERK-F6 (40 mg/kg p.o.). Mice (n=5 per arm) were sacrificed after 3 days (b,c) and 7 days (d,e) and tumors harvested. […] Vinculin (Vin) was used as a loading control. […] Error bars represent S.E.M.
To probe the efficacy of SERK-F6 for killing ERα positive tumors, large MCF-7 tumors were grown and then intervened with therapy. […] The mice were then sacrificed prior to complete tumor eradication.

[8] = tested on: TYS and TDG breast cancer cells; experiment: Killing of TYS and TDG breast cancer cells by endocrine therapy drugs; type: cell-based, human
[9] = tested on: OVCAR-3 cells; settings: OVCAR-3 orthotopic xenograft

**Q.** How did the “effectiveness in killing compared with BHPI” value [1] turn out when `COc1ccc(C2(c3ccc(O)cc3)C(=O)Nc3c(C)cccc32)cc1` (stereo not shown) [Compound 2, 3-(4-hydroxyphenyl)-3-(4-methoxyphenyl)-7-methylindolin-2-one] was run?
**A.** Its value is “more effective than BHPI”.

**Q.** With `COc1ccc(C2(c3ccc(O)cc3)C(=O)Nc3c(C(F)(F)F)cccc32)cc1` (stereo not shown) [Compound 4, 3-(4-hydroxyphenyl)-3-(4-methoxyphenyl)-7-(trifluoromethyl)indolin-2-one] as the compound, how does the “ability to kill TDG cells compared to BHPI” value ([2]; 75 nM) read?
**A.** The value was “greatly increased ability to kill”.

**Q.** What about the “effectiveness in killing compared with BHPI” value [1] of the same compound?
**A.** The value was “more effective than BHPI”.

**Q.** And the “ability to kill TYS cells compared to BHPI” value ([3]; 35 nM)?
**A.** Its value is “greatly increased ability to kill”.

**Q.** What about the “ability to kill TYS cells compared to BHPI” value ([3]; 50 nM) of the same compound?
**A.** Its value is “increased ability to kill”.

**Q.** And the “ability to kill T47D cells compared to BHPI” value [4]?
**A.** The value was “greatly increased ability to kill”.

**Q.** And the “cell death of MCF-10A cells” value [5]?
**A.** The value was “neither BHPI nor any of the test compounds induce significant death”.

**Q.** What does the source list for `Cc1cccc2c1NC(=O)C2(c1ccc(O)cc1)c1ccc(OC(F)(F)F)cc1` (stereo not shown) [Compound 6, 3-(4-hydroxyphenyl)-7-methyl-3-(4-(trifluoromethoxy)phenyl)indolin-2-one]?
**A.** effectiveness in killing compared with BHPI [1]: more effective than BHPI; cell death of MCF-10A cells [5]: neither BHPI nor any of the test compounds induce significant death

**Q.** What does the source list for `CC/C(=C(\c1ccc(O)cc1)c1ccc(OCCN(C)C)cc1)c1ccccc1` [OHT, z-4-hydroxytamoxifen, reference compound]?
**A.** killing of TDG-Luc cells, dose response [2]: do not kill; cytotoxic versus cytostatic phenotype [6]: cytostatic

**Q.** How did the tumor response [7] turn out when `C[C@]12CC[C@@H]3c4ccc(O)cc4C[C@@H](CCCCCCCCC[S+]([O-])CCCC(F)(F)C(F)(F)F)[C@H]3[C@@H]1CC[C@@H]2O` (stereo partly shown) [fulvestrant, reference compound] was run?
**A.** The tumor response was “dramatic effects against these large and established tumors are not obtained”.

**Q.** And the “ability to kill TYS and TDG cells” value [8]?
**A.** The value was “no ability at all to kill”.

**Q.** What about the “killing of TDG-Luc cells, dose response” value [2] of the same compound?
**A.** Its value is “do not kill”.

**Q.** For `CC(=O)O[C@H]1C(=O)[C@@]2(C)[C@H]([C@H](OC(=O)c3ccccc3)[C@]3(O)C[C@H](OC(=O)[C@H](O)[C@@H](NC(=O)c4ccccc4)c4ccccc4)C(C)=C1C3(C)C)[C@]1(OC(C)=O)CO[C@@H]1C[C@@H]2O` [paclitaxel], which “tumor growth / detectability” value [9] is on record?
**A.** Its value is “ineffective”.

**Q.** `CC/C(=C(\c1ccccc1)c1ccc(OCCN(C)C)cc1)c1ccccc1` [tamoxifen] was tested. Which “ability to kill TYS and TDG cells” value [8] did it give?
**A.** Its value is “no ability at all to kill”.
